Reference: patent US10172868B2, “Substituted quinazolines for inhibiting kinase activity” (NeuPharma, Inc., priority 2013, dated 2019)

How the values were obtained:
FGFR1 = FGFR1 (Homo sapiens (Human), UniProt P11362); test: Z'-LYTE kinase inhibition assay, FGFR1; type: biochemical; details: compound at 0.041 μM; read-out: % inhibition against FGFR1
Method: (§1) Inhibitory activities of compounds against BTK, EGFR and EGFR mutants (EGFR L858R, EGFR T790M, EGFR L858R/T790M), FGFR1, FGFR2, JAK2, JAK3 and KDR were measured by Invitrogen using Z'-LYTE® Method as briefly described in the following.
(§2) Test Compounds are screened in 1% DMSO (final) in the well. For 10 point titrations, 3-fold serial dilutions are conducted from the starting concentration. All ATP Solutions are diluted to a 4× working concentration in Kinase Buffer (50 mM HEPES pH 7.5, 0.01% BRIJ-35, 10 mM MgCl2, 1 mM EGTA). Peptide/Kinase Mixtures are diluted to a 2× working concentration in the appropriate Kinase Buffers as described below.
(v) Peptide/Kinase Mixtures for Measurement of FGFR1:
The 2×FGFR1/Tyr 04 mixture is prepared in 50 mM HEPES pH 7.5, 0.01% BRIJ-35, 10 mM MgCl2, 4 mM MnCl2, 1 mM EGTA, 2 mM DTT. The final 10 μL Kinase Reaction consists of 0.41-3.5 ng FGFR1 and 2 μM Tyr 04 in 50 mM HEPES pH 7.5, 0.01% BRIJ-35, 10 mM MgCl2, 2 mM MnCl2, 1 mM EGTA, 1 mM DTT. After the 1 hour Kinase Reaction incubation, 5 μL of a 1:64 dilution of Development Reagent B is added.
(§3) Reaction starts by 30-second shaking of mixture consisting of 2.5 μL 4× test compound, […] 2× kinase reaction mixture and 2.5 μL 4×ATP Solution on Bar-coded Corning, low volume NBS, black 384-well plate (Corning Cat. #3676). Then the mixture is incubated for 60-minute at room temperature for the kinase reaction, followed by addition of 5 μL of a 1:1024 dilution of development reagent A and 30-second plate shake. The mixture is then incubated for another 60-minute at room temperature for development reaction. Finally fluorescence is read by plate reader.
To determine IC50 of a compound against EGFR, EGFR mutant and other kinases, a series of concentrations of the compound were tested for the inhibition. […] The scale utilized in Table 4 is as follows: +++ less than 100 nM, ++ 100-500 nM and + greater than 500 nM.

H1975 cells = test: Inhibition of cancer cell growth, MTT assay, H1975; details: Homo sapiens, NCI-H1975, 72 h, read-out: IC50 in H1975 cells
EGFR (ErbB1) T790M L858R = EGFR (ErbB1) T790M L858R (Homo sapiens (Human), UniProt P00533, L858R/T790M); test: Z'-LYTE kinase inhibition assay, EGFR L858R/T790M; type: biochemical; details: for inhibition at 1 µM: read-out: % inhibition against EGFR L858R/T790M (Compound at 1 μM); for inhibition at 0.0137 µM: read-out: % inhibition against EGFR L858R/T790M (Compound at 0.0137 μM); for IC50: read-out: IC50 against EGFR L858R/T790M
Summary of the method: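 IC50 taken from 10-point, 3-fold serial dilutions tested in 1% DMSO. The mutant kinase and peptide were prepared in HEPES pH 6.5 buffer with BRIJ-35, MgCl2, EGTA and NaN3, then reacted with ATP for 1 h at room temperature. Development reagent was added for a further hour before the fluorescence readout.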

JAK2 = JAK2 (Homo sapiens (Human), UniProt O60674); test: Z'-LYTE kinase inhibition assay, JAK2; type: biochemical; details: compound at 0.041 μM; read-out: % inhibition against JAK2
Method: as §1, §2
(v) Peptide/Kinase Mixtures for Measurement of JAK2:
The 2×JAK2/Tyr 06 mixture is prepared in 50 mM HEPES pH 7.5, 0.01% BRIJ-35, 10 mM MgCl2, 1 mM EGTA. The final 10 μL Kinase Reaction consists of 0.06-0.81 ng JAK2 and 2 μM Tyr 06 in 50 mM HEPES pH 7.5, 0.01% BRIJ-35, 10 mM MgCl2, 1 mM EGTA. After the 1 hour Kinase Reaction incubation, 5 μL of a 1:64 dilution of Development Reagent A is added.
as §3

BTK = BTK (Homo sapiens (Human), UniProt Q06187); test: Z'-LYTE kinase inhibition assay, BTK; type: biochemical; details: for inhibition at 0.041 µM: compound at 0.041 μM, read-out: % inhibition against BTK; for IC50: read-out: IC50 against BTK
Summary of the method: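 Z'-LYTE FRET assay with Tyr 01 peptide in 50 mM HEPES pH 7.5, 10 mM MgCl2, 1 mM EGTA, 0.01% BRIJ-35. Compounds in 1% DMSO were tested as 10-point, 3-fold titrations.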

HCC827 cells = test: cells; details: Homo sapiens, HCC827, 72 h, read-out: IC50 in HCC827 cells
Method: (§4) Taxol (as a positive control. Sigma) and compounds were dissolved in DMSO (Sigma), and the final concentration of DMSO in the medium was 1%. Tumor cells were plated in 96-well plates at densities of about 4000 cells/well of a 96-well plate and allowed to adhere/grow for 24 h. They were then treated with various concentrations of drug for 72 h, 3-(4,5-Dimethylthiazol-2-yl)-2,5-diphenyltetrazolium bromide (MTT, Sigma) was used to determine the number of viable cells at the time of compound addition and the number of cells remaining after 72 h compound exposure. The number of cells remaining after 72 h was compared to the number of viable cells at the time of compound addition by measuring the absorbance at 570 nm, allowing for the calculation of growth inhibition.
(§5) All concentrations of compounds were tested in triplicate and controls were averaged over 4 wells. IC50 was calculated by plotting the concentration of compound vs the percentage of inhibition in treated wells using GraphPad Prism 5.
(§6) The scale utilized in Tables 5 is as follows: +++ less than 100 nM; ++ between 100 nM and 500 nM; and + greater than 500 nM.

EGFR (ErbB1) = EGFR (ErbB1) (Homo sapiens (Human), UniProt P00533); test: Z'-LYTE kinase inhibition assay, EGFR; type: biochemical; details: for inhibition at 0.041 µM: read-out: % inhibition against EGFR (Compound at 0.041 μM); for inhibition at 1 µM: read-out: % inhibition against EGFR (Compound at 1 μM); for IC50: read-out: IC50 against EGFR
Summary of the method: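 IC50 values derived from 10-point, 3-fold compound dilution series (1% DMSO final) using Z'-LYTE fluorescence readout after 60-min development. Reaction: EGFR (1.1-5.25 ng) with 2 μM peptide, 60 min at room temperature in HEPES pH 7.5 buffer containing MgCl2, MnCl2, EGTA, DTT and BRIJ-35.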

A431 cells = test: cells; details: Homo sapiens, A-431, 72 h, read-out: IC50 in A431 cells
Method: as §4, §5, §6

H1299 cells = test: Inhibition of cancer cell growth, MTT assay, H1299; details: Homo sapiens, NCI-H1299, 72 h, read-out: IC50 in H1299 cells
Method: (§7) Inhibition of cell growth by compounds was measured using MTT assay (Mosmann, T., Journal of Immunological Methods, 1983, 65, 55-63). Tumor cell lines were purchased from ATCC (American Type Culture Collection, Manassas, Va.). All cell lines were maintained in RPMI 1640 (Hyclone) supplemented with 10% fetal bovine serum (FBS, Hyclone), glutamine (2 mM, Hyclone), and antibiotics (penicillin 100 U/mL and streptomycin 50 μg/mL) at 37° C. in a humidified atmosphere of 5% CO2 in air. Taxol (as a positive control. Sigma) and compounds were dissolved in DMSO (Sigma), and the final concentration of DMSO in the medium was 1%. Tumor cells were plated in 96-well plates at densities of about 4000 cells/well of a 96-well plate and allowed to adhere/grow for 24 h. They were then treated with various concentrations of drug for 72 h, 3-(4,5-Dimethylthiazol-2-yl)-2,5-diphenyltetrazolium bromide (MTT, Sigma) was used to determine the number of viable cells at the time of compound addition and the number of cells remaining after 72 h compound exposure. The number of cells remaining after 72 h was compared to the number of viable cells at the time of compound addition by measuring the absorbance at 570 nm, allowing for the calculation of growth inhibition.
as §5

H3255 cells = test: Inhibition of cancer cell growth, MTT assay, H3255; details: Homo sapiens, NCI-H3255, 72 h, read-out: IC50 in H3255 cells
Method: as §7, §5

Sequence of EGFR (ErbB1) (P00533 25-1210): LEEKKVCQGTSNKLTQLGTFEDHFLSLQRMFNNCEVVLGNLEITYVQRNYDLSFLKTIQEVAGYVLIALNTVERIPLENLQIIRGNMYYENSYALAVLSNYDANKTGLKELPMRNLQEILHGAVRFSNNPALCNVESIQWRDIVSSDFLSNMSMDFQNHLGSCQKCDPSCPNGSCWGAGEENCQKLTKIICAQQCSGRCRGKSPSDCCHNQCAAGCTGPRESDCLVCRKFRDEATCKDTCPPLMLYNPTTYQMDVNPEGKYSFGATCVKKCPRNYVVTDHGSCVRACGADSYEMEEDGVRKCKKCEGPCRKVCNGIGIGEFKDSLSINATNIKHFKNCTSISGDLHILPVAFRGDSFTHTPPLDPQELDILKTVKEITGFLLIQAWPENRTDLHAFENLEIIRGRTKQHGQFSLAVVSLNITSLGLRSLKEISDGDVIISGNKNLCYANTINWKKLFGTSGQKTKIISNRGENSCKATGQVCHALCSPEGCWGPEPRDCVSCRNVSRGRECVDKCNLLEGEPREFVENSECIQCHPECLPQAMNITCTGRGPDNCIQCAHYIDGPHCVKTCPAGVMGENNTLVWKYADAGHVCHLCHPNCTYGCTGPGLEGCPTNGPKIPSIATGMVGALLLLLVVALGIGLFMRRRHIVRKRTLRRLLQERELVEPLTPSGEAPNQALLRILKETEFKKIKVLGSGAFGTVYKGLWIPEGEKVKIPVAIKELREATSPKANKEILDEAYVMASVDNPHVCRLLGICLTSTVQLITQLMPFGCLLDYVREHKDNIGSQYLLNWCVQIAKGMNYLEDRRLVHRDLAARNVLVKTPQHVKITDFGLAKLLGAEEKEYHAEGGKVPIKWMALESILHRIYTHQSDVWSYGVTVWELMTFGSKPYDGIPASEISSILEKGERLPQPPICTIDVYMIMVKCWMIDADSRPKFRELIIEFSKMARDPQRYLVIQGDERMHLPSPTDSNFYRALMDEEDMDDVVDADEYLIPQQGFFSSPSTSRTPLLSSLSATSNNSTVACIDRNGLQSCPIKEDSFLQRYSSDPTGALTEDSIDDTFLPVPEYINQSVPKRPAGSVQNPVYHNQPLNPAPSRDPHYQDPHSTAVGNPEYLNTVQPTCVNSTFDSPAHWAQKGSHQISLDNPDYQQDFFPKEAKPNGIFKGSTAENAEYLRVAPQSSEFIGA
Sequence of JAK2 (O60674 whole entry): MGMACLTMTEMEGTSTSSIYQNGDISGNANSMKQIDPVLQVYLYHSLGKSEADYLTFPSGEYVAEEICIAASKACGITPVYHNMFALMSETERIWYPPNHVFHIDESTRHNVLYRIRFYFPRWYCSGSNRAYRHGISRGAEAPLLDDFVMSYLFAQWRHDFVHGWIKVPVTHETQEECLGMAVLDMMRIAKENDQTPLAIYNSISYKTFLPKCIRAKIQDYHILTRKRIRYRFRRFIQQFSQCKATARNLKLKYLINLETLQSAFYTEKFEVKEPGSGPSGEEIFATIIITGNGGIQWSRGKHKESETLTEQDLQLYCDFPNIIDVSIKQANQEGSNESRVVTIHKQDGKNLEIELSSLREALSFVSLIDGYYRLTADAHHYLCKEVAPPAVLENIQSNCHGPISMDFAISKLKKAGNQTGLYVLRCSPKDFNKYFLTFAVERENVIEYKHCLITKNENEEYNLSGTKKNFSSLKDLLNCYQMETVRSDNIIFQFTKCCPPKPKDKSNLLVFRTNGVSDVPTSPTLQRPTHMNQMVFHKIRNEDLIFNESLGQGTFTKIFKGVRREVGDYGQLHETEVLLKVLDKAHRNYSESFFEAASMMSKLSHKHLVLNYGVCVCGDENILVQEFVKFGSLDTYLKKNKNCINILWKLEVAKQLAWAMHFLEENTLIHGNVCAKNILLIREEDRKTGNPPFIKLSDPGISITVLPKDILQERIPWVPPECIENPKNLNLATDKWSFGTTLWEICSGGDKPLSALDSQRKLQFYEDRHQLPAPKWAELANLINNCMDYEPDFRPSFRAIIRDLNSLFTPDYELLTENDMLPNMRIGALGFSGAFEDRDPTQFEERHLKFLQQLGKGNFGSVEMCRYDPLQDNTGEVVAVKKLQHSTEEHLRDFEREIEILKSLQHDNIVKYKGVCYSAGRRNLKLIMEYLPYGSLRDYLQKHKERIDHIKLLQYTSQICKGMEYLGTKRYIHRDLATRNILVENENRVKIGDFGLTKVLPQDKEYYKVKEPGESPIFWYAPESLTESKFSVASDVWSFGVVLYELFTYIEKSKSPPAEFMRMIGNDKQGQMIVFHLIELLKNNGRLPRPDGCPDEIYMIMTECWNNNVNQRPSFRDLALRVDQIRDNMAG
Sequence of BTK (Q06187 whole entry): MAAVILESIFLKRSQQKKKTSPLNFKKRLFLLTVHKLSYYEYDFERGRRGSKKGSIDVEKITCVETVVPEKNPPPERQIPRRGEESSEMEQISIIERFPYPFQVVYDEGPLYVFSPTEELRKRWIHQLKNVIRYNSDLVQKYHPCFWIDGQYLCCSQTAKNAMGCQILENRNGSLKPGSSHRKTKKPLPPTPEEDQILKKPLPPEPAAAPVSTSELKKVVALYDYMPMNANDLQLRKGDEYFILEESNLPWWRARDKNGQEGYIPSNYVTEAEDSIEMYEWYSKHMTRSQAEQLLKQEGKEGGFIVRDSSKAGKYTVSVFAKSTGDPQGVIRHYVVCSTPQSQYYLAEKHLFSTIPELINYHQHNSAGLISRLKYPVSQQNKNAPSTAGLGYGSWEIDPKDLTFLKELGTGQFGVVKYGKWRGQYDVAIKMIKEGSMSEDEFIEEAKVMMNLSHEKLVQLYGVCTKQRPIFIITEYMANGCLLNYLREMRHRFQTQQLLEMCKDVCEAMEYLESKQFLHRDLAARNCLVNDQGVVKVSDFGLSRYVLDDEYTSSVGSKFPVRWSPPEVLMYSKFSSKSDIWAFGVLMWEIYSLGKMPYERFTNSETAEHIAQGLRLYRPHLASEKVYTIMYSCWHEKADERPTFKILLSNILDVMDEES
Sequence of EGFR (ErbB1) T790M L858R (P00533 25-1210 T790M/L858R): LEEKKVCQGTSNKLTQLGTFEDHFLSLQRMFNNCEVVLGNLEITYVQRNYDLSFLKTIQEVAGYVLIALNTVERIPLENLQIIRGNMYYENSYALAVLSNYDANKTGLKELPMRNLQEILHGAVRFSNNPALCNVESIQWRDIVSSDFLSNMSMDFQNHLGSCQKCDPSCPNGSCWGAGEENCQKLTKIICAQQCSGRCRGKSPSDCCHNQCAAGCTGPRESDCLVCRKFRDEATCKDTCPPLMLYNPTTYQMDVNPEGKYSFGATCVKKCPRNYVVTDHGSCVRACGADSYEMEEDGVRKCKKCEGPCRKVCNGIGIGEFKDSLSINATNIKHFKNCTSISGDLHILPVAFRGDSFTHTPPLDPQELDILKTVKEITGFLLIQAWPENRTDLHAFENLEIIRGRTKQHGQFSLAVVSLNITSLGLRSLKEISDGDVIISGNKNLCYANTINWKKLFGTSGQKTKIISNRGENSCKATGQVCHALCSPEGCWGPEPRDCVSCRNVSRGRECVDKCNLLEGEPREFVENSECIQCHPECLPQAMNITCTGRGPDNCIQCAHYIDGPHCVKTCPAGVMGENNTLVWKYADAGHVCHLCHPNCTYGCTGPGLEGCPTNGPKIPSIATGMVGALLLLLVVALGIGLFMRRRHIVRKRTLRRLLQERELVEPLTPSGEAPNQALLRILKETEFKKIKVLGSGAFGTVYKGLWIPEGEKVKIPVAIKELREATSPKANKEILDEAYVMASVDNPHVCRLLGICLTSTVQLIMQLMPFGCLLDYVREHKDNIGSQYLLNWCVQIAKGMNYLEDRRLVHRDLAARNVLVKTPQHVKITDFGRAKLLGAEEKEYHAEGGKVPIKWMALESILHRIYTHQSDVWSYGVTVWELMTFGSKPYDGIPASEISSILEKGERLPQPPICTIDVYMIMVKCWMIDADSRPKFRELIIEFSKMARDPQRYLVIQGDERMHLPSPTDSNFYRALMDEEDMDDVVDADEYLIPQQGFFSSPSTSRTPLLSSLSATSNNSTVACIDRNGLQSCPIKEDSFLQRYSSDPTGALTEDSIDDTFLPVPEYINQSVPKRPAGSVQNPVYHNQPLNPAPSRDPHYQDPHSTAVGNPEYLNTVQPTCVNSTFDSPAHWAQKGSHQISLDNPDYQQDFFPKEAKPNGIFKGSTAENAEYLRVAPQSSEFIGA
Sequence of FGFR1 (P11362 22-822): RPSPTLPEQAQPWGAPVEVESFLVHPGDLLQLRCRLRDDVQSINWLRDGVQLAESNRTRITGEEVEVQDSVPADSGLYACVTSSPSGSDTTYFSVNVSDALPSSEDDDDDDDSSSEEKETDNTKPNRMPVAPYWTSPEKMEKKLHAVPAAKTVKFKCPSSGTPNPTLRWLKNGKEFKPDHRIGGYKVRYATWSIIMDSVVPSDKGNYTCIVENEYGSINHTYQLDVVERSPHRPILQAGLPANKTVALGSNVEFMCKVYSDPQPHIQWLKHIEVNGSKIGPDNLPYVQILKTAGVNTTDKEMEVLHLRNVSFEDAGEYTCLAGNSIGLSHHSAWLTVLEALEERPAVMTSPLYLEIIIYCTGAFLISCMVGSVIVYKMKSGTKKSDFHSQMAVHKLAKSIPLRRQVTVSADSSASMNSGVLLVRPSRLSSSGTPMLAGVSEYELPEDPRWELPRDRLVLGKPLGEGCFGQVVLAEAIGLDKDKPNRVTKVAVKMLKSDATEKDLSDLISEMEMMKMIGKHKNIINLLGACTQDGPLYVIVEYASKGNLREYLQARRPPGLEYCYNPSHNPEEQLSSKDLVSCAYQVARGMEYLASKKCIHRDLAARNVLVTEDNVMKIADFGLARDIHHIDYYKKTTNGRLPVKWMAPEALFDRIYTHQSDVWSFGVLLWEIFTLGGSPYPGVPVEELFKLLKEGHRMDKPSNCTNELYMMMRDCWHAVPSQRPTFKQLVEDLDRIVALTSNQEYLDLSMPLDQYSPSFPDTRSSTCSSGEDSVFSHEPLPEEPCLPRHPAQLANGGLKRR

| Structure (SMILES) | inhibition at 0.041 µM (FGFR1) [%] | IC50 (H1975 cells) [µM] | inhibition at 1 µM (EGFR (ErbB1) T790M L858R) [%] | inhibition at 0.041 µM (JAK2) [%] | inhibition at 0.041 µM (BTK) [%] | IC50 (HCC827 cells) [µM] | inhibition at 0.0137 µM (EGFR (ErbB1) T790M L858R) [%] | IC50 (EGFR (ErbB1) T790M L858R) [µM] | inhibition at 0.041 µM (EGFR (ErbB1)) [%] | IC50 (A431 cells) [µM] | IC50 (H1299 cells) [µM] | inhibition at 1 µM (EGFR (ErbB1)) [%] | IC50 (H3255 cells) [µM] | IC50 (BTK) [µM] | IC50 (EGFR (ErbB1)) [µM] |
| --- | --- | --- | --- | --- | --- | --- | --- | --- | --- | --- | --- | --- | --- | --- | --- |
| CC(=O)Nc1cccc(-c2cccc3cnc(Nc4ccc(N5CCN(C)CC5)cc4)nc23)c1 [Example C022, N-(3-(2-((4-(4-methylpiperazin-1-yl)phenyl)amino)quinazolin-8-yl)phenyl)acetamide] | > 50 | > 0.5 | > 50 | > 50 | > 50 | < 0.1 | – | – | – | – | – | – | – | – | – |
| C=CC(=O)Nc1cccc(-c2cccc3cnc(Nc4ccc(N5CCN(C)CC5)cc4)nc23)c1Cl [Example C054, N-(2-chloro-3-(2-((4-(4-methylpiperazin-1-yl)phenyl)amino)quinazolin-8-yl)phenyl)acrylamide] | – | 0.1 to 0.5 | – | > 50 | > 50 | – | > 50 | < 0.1 | > 50 | > 0.5 | – | – | – | – | – |
| Clc1ccccc1-c1cccc2cnc(Nc3ccc(N4CCNCC4)cc3)nc12 [Example C026, 8-(2-chlorophenyl)-N-(4-(piperazin-1-yl)phenyl)quinazolin-2-amine] | > 50 | > 0.5 | > 50 | > 50 | < 50 | > 0.5 | – | – | – | – | – | – | – | – | – |
| C=CC(=O)Nc1cccc(-c2cccc3cnc(Nc4ccc(N5CCN(C(C)=O)CC5)nc4)nc23)c1 [Example C036, N-(3-(2-((6-(4-acetylpiperazin-1-yl)pyridin-3-yl)amino)quinazolin-8-yl)phenyl)acrylamide] | < 50 | > 0.5 | – | – | – | < 0.1 | – | – | – | – | > 0.5 | – | – | – | – |
| C=CC(=O)Nc1cccc(-c2cccc3cnc(Nc4ccc(N5CCN(C(C)=O)CC5)cc4)nc23)c1 [Example C032, N-(3-(2-((4-(4-acetylpiperazin-1-yl)phenyl)amino)quinazolin-8-yl)phenyl)acrylamide] | – | 0.1 to 0.5 | – | > 50 | > 50 | < 0.1 | – | < 0.1 | – | 0.1 to 0.5 | > 0.5 | > 50 | – | – | – |
| C=CC(=O)Nc1cccc(-c2cccc3cnc(Nc4ccc(N5CCN(C)CC5)nc4OC)nc23)c1 [Example C055, N-(3-(2-((2-methoxy-6-(4-methylpiperazin-1-yl)pyridin-3-yl)amino)quinazolin-8-yl)phenyl)acrylamide] | – | 0.1 to 0.5 | – | < 50 | < 50 | – | > 50 | – | < 50 | 0.1 to 0.5 | – | – | – | – | – |
| C=CC(=O)Nc1cccc(-c2cccc3cnc(Nc4ccc(NC5CN(CCO)C5)cc4)nc23)c1 [Example C099, N-(3-(2-((4-((1-(2-hydroxyethyl)azetidin-3-yl)amino)phenyl)amino)quinazolin-8-yl)phenyl)acrylamide] | – | < 0.1 | – | – | – | – | > 50 | < 0.1 | > 50 | 0.1 to 0.5 | > 0.5 | – | > 0.5 | < 0.1 | < 0.1 |
| C=CC(=O)Nc1cccc(-c2c(C)ccc3cnc(Nc4ccc(N5CCOCC5)cc4)nc23)c1 [Example C033, N-(3-(7-methyl-2-((4-morpholinophenyl)amino)quinazolin-8-yl)phenyl)acrylamide] | – | 0.1 to 0.5 | > 50 | < 50 | > 50 | < 0.1 | – | – | – | – | > 0.5 | > 50 | – | – | – |
| Fc1ccc(OCCN2CCOCC2)cc1-c1cccc2cnc(Nc3ccc(N4CCOCC4)cc3)nc12 [Example C023, 8-(2-fluoro-5-(2-morpholinoethoxy)phenyl)-N-(4-morpholinophenyl)quinazolin-2-amine] | < 50 | > 0.5 | < 50 | < 50 | < 50 | > 0.5 | – | – | – | – | – | < 50 | – | – | – |
| C=CC(=O)Nc1cccc(-c2cccc3cnc(Nc4ccc(N5CCN(C)CC5)c(C(N)=O)c4)nc23)c1 [Example C085, 5-((8-(3-acrylamidophenyl)quinazolin-2-yl)amino)-2-(4-methylpiperazin-1-yl)benzamide] | – | < 0.1 | – | – | – | – | – | < 0.1 | < 50 | 0.1 to 0.5 | > 0.5 | – | > 0.5 | < 0.1 | – |
| C=CC(=O)Nc1cncc(-c2cccc3cnc(Nc4ccc(N5CCN(C)CC5)cc4)nc23)c1 [Example C040, N-(5-(2-((4-(4-methylpiperazin-1-yl)phenyl)amino)quinazolin-8-yl)pyridin-3-yl)acrylamide] | – | < 0.1 | – | < 50 | > 50 | < 0.1 | – | < 0.1 | > 50 | 0.1 to 0.5 | 0.1 to 0.5 | – | – | – | < 0.1 |
